Experimental data taken from ChEMBL document CHEMBL1649484, “AbaR5, a large multiple-antibiotic resistance region found in Acinetobacter baumannii” (2009).
≈ marks a conversion by molar mass, not a printed value.

Columns and labels:
Format in all cases: functional
Acinetobacter baumannii [1] = assay: Antimicrobial activity against Acinetobacter baumannii 3208 expressing multiple-antibiotic resistance gene AbaR5 by […] 2 system in presence of beta-lactamase inhibitor Tazobactam
Acinetobacter baumannii [2] = assay: Antimicrobial activity against Acinetobacter baumannii 3208 expressing multiple-antibiotic resistance gene AbaR5 by […] 2 system
Acinetobacter baumannii [3] = assay: Antimicrobial activity against Acinetobacter baumannii 3208 expressing multiple-antibiotic resistance gene AbaR5 by […] 2 system in presence of beta-lactamase inhibitor clavulanic acid

Row | Compound | MIC (Acinetobacter baumannii [2]) [µg/mL] | other results
1 | CCN1CCN(C(=O)N[C@@H](C(=O)N[C@@H]2C(=O)N3[C@@H]2SC(C)(C)[C@@H]3C(=O)O)c2ccccc2)C(=O)C1=O [PIPERACILLIN] |  | MIC (Acinetobacter baumannii [1]): ≤ 4 µg/mL
2 | C[C@@H](O)[C@H]1C(=O)N2C(C(=O)O)=C(S[C@@H]3CN[C@H](C(=O)N(C)C)C3)[C@H](C)[C@H]12 [MEROPENEM] | 0.5 (≈ 1.3 µM) | 
3 | CC1(C)S[C@@H]2[C@H](NC(=O)[C@H](C(=O)O)c3ccsc3)C(=O)N2[C@H]1C(=O)O [TICARCILLIN] |  | MIC (Acinetobacter baumannii [3]): 32 µg/mL
4 | O=C(O)c1cn(C2CC2)c2cc(N3CCNCC3)c(F)cc2c1=O [CIPROFLOXACIN] | ≥ 4 | 
5 | CO/N=C(\C(=O)N[C@@H]1C(=O)N2C(C(=O)[O-])=C(C[N+]3(C)CCCC3)CS[C@H]12)c1csc(N)n1 [CEFEPIME] | 16 (≈ 33.3 µM) | 
6 | NC[C@H]1O[C@H](O[C@H]2[C@H](O)[C@@H](O[C@H]3O[C@H](CO)[C@@H](O)[C@H](N)[C@H]3O)[C@H](N)C[C@@H]2N)[C@H](N)C[C@@H]1O [TOBRAMYCIN] | ≤ 1 | 
7 | GENTAMICIN | > 16 | 
